Results as given in the supplement of paper PMC10307832.

How the values were obtained:
Assay in all cases: relative viability (nuclei count vs DMSO), 5 days (fraction); higher = more cells survive
XMD13-2 + Navitoclax = compound: C1CC1C(=O)NC2=NNC3=C2C=CC(=C3)C4=CC(=CC=C4)C(=O)NC5CC5 [XMD13-2] + CC1(C)CCC(c2ccc(Cl)cc2)=C(CN2CCN(c3ccc(C(=O)NS(=O)(=O)c4ccc(N[C@H](CCN5CCOCC5)CSc5ccccc5)c(S(=O)(=O)C(F)(F)F)c4)cc3)CC2)C1 [Navitoclax] (partner 0.5 µM)
Procedure, shortened: (§1)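 The day after seeding in 1536-well plates, lung cancer cell lines were treated by pin tool with a single drug, or with a fixed anchor-drug dose together with five library-drug doses (not always all listed) in √10 steps. After 5 days, a combined fix-and-stain solution (final 0.05% Triton X-100, 1% formaldehyde, 1 ug/ml Hoechst) was added. Nuclei counted on 4× images gave relative viability as treated counts over vehicle counts, reported as the median of duplicate plates.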

XMD13-2 + Alpelisib = compound: C1CC1C(=O)NC2=NNC3=C2C=CC(=C3)C4=CC(=CC=C4)C(=O)NC5CC5 [XMD13-2] + Cc1nc(NC(=O)N2CCC[C@H]2C(N)=O)sc1-c1ccnc(C(C)(C)C(F)(F)F)c1 [Alpelisib] (partner 2 µM)
Procedure, shortened: as §1

ALW-II-49-7 + Vorinostat = compound: Cc1ccc(C(=O)Nc2cccc(C(F)(F)F)c2)cc1Nc1cncc(C(N)=O)c1 [ALW-II-49-7] + O=C(CCCCCCC(=O)Nc1ccccc1)NO [Vorinostat] (partner 1 µM)
Procedure, shortened: as §1

ALW-II-49-7 + AZD7762 = compound: Cc1ccc(C(=O)Nc2cccc(C(F)(F)F)c2)cc1Nc1cncc(C(N)=O)c1 [ALW-II-49-7] + NC(=O)Nc1cc(-c2cccc(F)c2)sc1C(=O)N[C@H]1CCCNC1 [AZD7762] (partner 0.2 µM)
Procedure, shortened: as §1

Row | Cell Line | relative viability (XMD13-2 + Navitoclax; first compound 0.05 µM) | relative viability (XMD13-2 + Navitoclax; first compound 0.1581 µM) | relative viability (XMD13-2 + Navitoclax; first compound 0.5 µM) | relative viability (XMD13-2 + Navitoclax; first compound 1.581 µM) | relative viability (XMD13-2 + Navitoclax; first compound 5 µM) | relative viability (XMD13-2 + Alpelisib; first compound 0.05 µM) | relative viability (XMD13-2 + Alpelisib; first compound 0.1581 µM) | relative viability (XMD13-2 + Alpelisib; first compound 0.5 µM) | relative viability (XMD13-2 + Alpelisib; first compound 1.581 µM) | relative viability (XMD13-2 + Alpelisib; first compound 5 µM) | relative viability (ALW-II-49-7 + Vorinostat; first compound 0.08 µM) | relative viability (ALW-II-49-7 + Vorinostat; first compound 0.253 µM) | relative viability (ALW-II-49-7 + Vorinostat; first compound 0.8 µM) | relative viability (ALW-II-49-7 + Vorinostat; first compound 2.53 µM) | relative viability (ALW-II-49-7 + Vorinostat; first compound 8 µM) | relative viability (ALW-II-49-7 + AZD7762; first compound 0.08 µM) | relative viability (ALW-II-49-7 + AZD7762; first compound 0.253 µM) | relative viability (ALW-II-49-7 + AZD7762; first compound 0.8 µM) | relative viability (ALW-II-49-7 + AZD7762; first compound 2.53 µM) | relative viability (ALW-II-49-7 + AZD7762; first compound 8 µM)
1 | NCI-H1651 | 1.28 | 1.04 | 1 | 1.2 | 0.947 | 1.19 | 0.899 | 0.942 | 0.913 | 1.02 | 0.576 | 0.665 | 0.579 | 0.54 | 0.555 | 0.465 | 0.466 | 0.474 | 0.397 | 0.317
2 | HOP-62 | 1.18 | 1.07 | 1.19 | 1.05 | 1.04 | 0.848 | 0.516 | 1.03 | 1 | 0.664 | 0.547 | 0.696 | 0.588 | 0.523 | 0.298 | 0.386 | 0.455 | 0.648 | 0.619 | 0.586
3 | CAL-12T | 1.41 | 1.06 | 1 | 1.18 | 1.24 | 1.31 | 1.18 | 1.24 | 1.11 | 1.4 | 0.681 | 0.866 | 0.834 | 0.737 | 0.76 | 0.5 | 0.641 | 0.744 | 0.349 | 0.588
4 | NCI-H3122 | 0.996 | 1.02 | 1.02 | 1.01 | 1.01 | 0.784 | 0.678 | 0.782 | 0.945 | 0.819 | 1.06 | 0.907 | 0.854 | 1.15 | 0.987 | 1.05 | 0.853 | 1.06 | 1.05 | 1.03
